According to paper PMC3438169 (PLoS ONE, 2012):
“Also recorded” adds a separate entry of the source. *1 amine or outer side, *2 acyl side, *3 side chain or, on linkers, in order; H or OH if unused. Where a SMILES comes first, the peptide text is derived from it. [ ]: non-standard residue; d: D form. dAla(ψthiazole) = C[C@@H](N[*:1])c1nc(C(=O)[*:2])cs1; Trp(4-OMe) = COc1cccc2[nH]cc(C[C@H](N)C(=O)O)c12; dAbu = CC[C@@H](N)C(=O)O; Dha = C=C(N)C(=O)O; Sar = CNCC(=O)O

Tests used:
P. aeruginosa EF-G1 = molecular target: T1, P. aeruginosa EF-G1 (Pseudomonas aeruginosa, UniProt Q9HWD2); assay: Surface plasmon resonance (SPR); type: binding
T1 construct: P. aeroginosa fusA1 encoding full-length EF-G was PCR amplified from pET28a-PaEFG-Nhis; made in house; host or cells: E. coli BL21 (DE3)
T1 sequence (Q9HWD2 whole entry): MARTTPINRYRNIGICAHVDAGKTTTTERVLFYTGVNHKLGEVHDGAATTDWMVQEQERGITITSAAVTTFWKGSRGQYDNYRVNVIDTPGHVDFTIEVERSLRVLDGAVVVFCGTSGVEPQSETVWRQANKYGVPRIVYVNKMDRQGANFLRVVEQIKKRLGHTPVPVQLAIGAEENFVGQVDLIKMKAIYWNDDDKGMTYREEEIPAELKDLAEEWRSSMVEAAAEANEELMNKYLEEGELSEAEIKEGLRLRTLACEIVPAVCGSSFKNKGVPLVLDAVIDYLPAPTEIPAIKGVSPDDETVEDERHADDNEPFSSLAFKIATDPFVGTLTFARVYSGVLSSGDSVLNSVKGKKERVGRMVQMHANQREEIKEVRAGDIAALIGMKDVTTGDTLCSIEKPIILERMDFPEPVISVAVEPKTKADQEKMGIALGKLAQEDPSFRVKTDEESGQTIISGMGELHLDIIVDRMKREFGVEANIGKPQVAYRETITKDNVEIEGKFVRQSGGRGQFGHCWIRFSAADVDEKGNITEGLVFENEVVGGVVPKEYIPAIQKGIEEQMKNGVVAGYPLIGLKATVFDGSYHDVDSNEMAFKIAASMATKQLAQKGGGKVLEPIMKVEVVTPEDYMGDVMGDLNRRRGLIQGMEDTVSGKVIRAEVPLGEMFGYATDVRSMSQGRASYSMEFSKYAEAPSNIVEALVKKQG
From the text: (§1) For wild type P. aeruginosa EF-G1 expression, the fusA gene was amplified from genomic DNA of P. aeruginosa PAO1 K767 using the primer pair EFG-F/EFG-R: […]/[…]. The product was digested with NdeI and HindIII and ligated into similarly digested pET28a to generate pET28a-PaEFG-Nhis. This plasmid was then used for site directed mutagenesis to introduce the nucleotide change encoding EF-G1S459F (pET28a-PaEFGS459F-Nhis). The plasmids were then transformed into an E. coli strain BL21 (DE3) for expression. A single colony was used to inoculate 10 ml LB broth containing 50 µg/ml kanamycin which was incubated at 37°C overnight, with shaking at 250 rpm. The overnight culture was then diluted 100-fold into 1 liter fresh LB broth containing 50 µg/ml kanamycin. After growing at 37°C with vigorous shaking for about 2.5 hours, expression of P. aeruginosa EF-G1 or EF-G1S459F was then induced by adding 0.1 mM IPTG, with further culture incubation at 18°C for 24 hours. Cells were then pelleted by centrifugation at 5,000 rpm with Sorvall SLC-6000 rotor and stored at −20°C. Cell pellets were then resuspended in 20 ml of BugBuster solution (Novagen) and incubated at room temperature for 20 minutes. […] The protein in the fractions was monitored by UV absorbance at 280 nm. […] Protein concentration was determined by Nano-drop spectrophotometer. […]

EF-G1 S459F = molecular target: T2, EF-G1 S459F (Pseudomonas aeruginosa, UniProt Q9HWD2, S459F); assay: Surface plasmon resonance (SPR), EF-G1 S459F; type: binding, P. aeruginosa; conditions: Biacore, data not shown
T2 construct: P. aeroginosa fusA1 encoding full-length EF-G was PCR amplified from pET28a-PaEFG-Nhis; made in house; host or cells: E. coli BL21 (DE3)
T2 sequence (Q9HWD2 whole entry S459F): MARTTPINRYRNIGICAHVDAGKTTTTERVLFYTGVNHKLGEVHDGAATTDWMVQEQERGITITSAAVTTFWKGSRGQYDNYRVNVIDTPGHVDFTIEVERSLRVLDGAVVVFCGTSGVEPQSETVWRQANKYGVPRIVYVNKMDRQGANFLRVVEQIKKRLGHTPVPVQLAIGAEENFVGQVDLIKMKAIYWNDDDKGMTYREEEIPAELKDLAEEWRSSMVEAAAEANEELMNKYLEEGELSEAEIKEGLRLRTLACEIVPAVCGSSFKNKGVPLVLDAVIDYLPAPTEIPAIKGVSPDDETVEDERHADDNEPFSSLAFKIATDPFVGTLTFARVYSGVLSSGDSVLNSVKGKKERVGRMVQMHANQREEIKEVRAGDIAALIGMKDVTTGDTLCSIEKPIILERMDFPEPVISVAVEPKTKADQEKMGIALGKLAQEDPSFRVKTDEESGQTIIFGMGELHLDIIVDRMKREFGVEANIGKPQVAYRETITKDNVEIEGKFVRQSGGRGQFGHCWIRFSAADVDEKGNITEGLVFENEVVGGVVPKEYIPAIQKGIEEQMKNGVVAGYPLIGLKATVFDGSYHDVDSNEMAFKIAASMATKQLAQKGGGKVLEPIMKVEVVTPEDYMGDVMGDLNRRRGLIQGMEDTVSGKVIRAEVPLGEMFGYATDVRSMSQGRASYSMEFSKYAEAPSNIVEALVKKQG
From the text: as §1

[1] = tested on: recombinant human mEF-G1 WT; assay: Biacore binding, human mEF-G1 WT; conditions: 10, 20, 40 µM, HBS-P+ pH 7.4, 4% DMSO
From the text: GFM1 encoding the active site of EF-G1 (residues 36–751) was PCR amplified from pDONR221 constructs using primers (GGGGACAAGTTTGTACAAAAAAGCAGGCTTAATGTCTTCATCAGGGGTGATT, GGGGACCACTTTGTACAAGAAAGCTGGGTATTAGTTCTTGGCTTTTCC). P. aeroginosa fusA1 encoding full-length EF-G was PCR amplified from pET28a-PaEFG-Nhis using primers (GGGGACCACTTTGTACAAGAAAGCTGGGTATTATCAACCTTGTTTTTT, GGGGACAAGTTTGTACAAAAAAGCAGGCTTAATGGCCCGTACTACACCC). Purified PCR products were cloned into the pDONR221 vector using Gateway cloning and BP Clonase II (Invitrogen), shuttled into an E.coli protein expression vector for N-terminal tagging (Avitag-His6 vector) using LR Clonase II (Invitrogen), and verified by sequencing. Avitag-His6-hEF-G1 and Avitag-His6-PaEF-G constructs were transformed into BL21-AI cells (Invitrogen) and isolated single colonies were used to inoculate 5 ml cultures which were grown overnight at 37°C with shaking. […]. Briefly, protein was captured on column using binding buffer (50 mM Tris; pH 7.5, 300 mM NaCl, 20 mM imidazole, 10% glycerol), washed extensively with washing buffer (50 mM Tris; pH 7.5, 500 mM NaCl, 30 mM imidazole, 10% glycerol), and then eluted with elution buffer (50 mM Tris; pH 7.5, 500 mM NaCl, 250 mM imidazole, 10% glycerol). […]

C=C1NC(=O)CN(C)C(=O)CNC(=O)[C@H](Cc2c[nH]c3cccc(OC)c23)NC(=O)[C@H](Cc2c[nH]c3ccccc23)NC(=O)c2csc(n2)[C@@H](C)NC(=O)[C@@H](CC)NC1=O [argyrin B] (cyclo([dAbu][dAla(ψthiazole)]W[Trp(4-OMe)]G[Sar][Dha]))
Binding to purified P. aeruginosa EF-G (in words) (P. aeruginosa EF-G1): bound purified P. aeruginosa EF-G tightly; also recorded: Very tight binding | Binding by SPR (in words) (EF-G1 S459F): failed to bind argyrin B sufficiently to generate a Kd value | Binding to human mEF-G1 (in words) [1]: still bound
